Assay: molar heat capacity at constant pressure
Details: 101.33 kPa, Crystal, Vacuum adiabatic calorimetry

O=C([O-])c1ccccc1.[Na+] [sodium benzoate]
Details	molar heat capacity at constant pressure [J/K/mol]
78.86 K	74.66
80.43 K	75.06
82.62 K	76.58
84.79 K	77.94
87.06 K	79
89.08 K	80.34
91.16 K	81.6
93.24 K	82.94
95.32 K	83.73
97.26 K	84.83
99.2 K	86.09
101.14 K	87.27
103.01 K	88.2
104.89 K	89.11
106.3 K	89.81
107.72 K	90.52
109.44 K	91.63
111.32 K	92.54
113.05 K	93.55
114.93 K	94.67
116.5 K	95.37
118.38 K	95.98
120.05 K	97.43
122.61 K	98.9
126.31 K	100.57
129.87 K	102.54
133.42 K	104.11
137.05 K	105.58
140.25 K	107.64
143.52 K	109.31
146.93 K	111.38
150.2 K	112.85
153.61 K	114.42
156.74 K	115.8
159.94 K	117.1
163.08 K	118.62
166.41 K	120.71
169.54 K	122.29
172.67 K	124.15
175.8 K	125.53
178.78 K	127.2
182.05 K	128.48
186.18 K	130.74
190.73 K	133.09
194.71 K	134.96
198.69 K	136.73
202.67 K	138.89
206.65 K	140.95
210.78 K	143.02
214.62 K	144.69
218.6 K	147.24
222.72 K	148.91
226.56 K	150.78
230.54 K	152.55
234.67 K	154.3
238.65 K	156.48
242.63 K	158.35
247.75 K	160.9
252.79 K	162.99
256.71 K	164.6
260.69 K	166.7
264.71 K	168.34
268.8 K	170.63
272.92 K	172.89
276.9 K	174.76
280.74 K	176.43
284.72 K	178.39
288.7 K	179.87
292.69 K	181.54
295.1 K	182.91
298.37 K	184.58
301.36 K	185.56
304.35 K	186.94
307.33 K	188.32
310.32 K	189.49
313.3 K	190.87
316.29 K	191.75
319.28 K	192.93
322.12 K	194.21
325.11 K	195.49
327.81 K	196.77
329.51 K	197.36
332.93 K	198.63
335.35 K	199.91
338.05 K	200.79
340.89 K	202.17
343.88 K	202.96
346.72 K	204.33
349.42 K	205.02
352.27 K	206.2
355.25 K	207.28
358.1 K	208.56
360.85 K	209.38
363.79 K	210.82
366.63 K	212.19
369.62 K	213.57
372.46 K	214.53
375.3 K	215.93
378.15 K	217.2
380.99 K	218.09
383.98 K	219.66
386.68 K	220.45
389.52 K	221.82
392.37 K	223.2
395.21 K	224.18
397.91 K	225.75

Reference: the NIST ThermoML archive (doi:10.1016/j.tca.2008.12.029)
